This note sets out measurements from ChEMBL document CHEMBL1201862, “PubChem BioAssay data set” (2004).

Some test systems named below: UACC-257; SF-295; SF-539; NCI-H23; EKVX; SR; MOLT-4; HOP-62; HOP-92; SNB-75; OVCAR-5; A498; SK-MEL-5; K562; M14; COLO 205; CCRF-CEM; DU-145; NCI/ADR-RES.
Common to all, as to experiment: NCI-60 cell line screen, 48 h

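Values below derive from 48-hour exposures of cells grown in 96-well plates, with endpoints linearly interpolated between the two concentrations bracketing the appropriate inhibition level. Abbreviation: GI50, concentration required for 50% inhibition of growth.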 Activity calls are given as the source filed them. No stated cut-off is given here; in the data, active = GI50 up to about 1.1 µM and inactive = higher.

As to `COc1ccc(C(O)/C(=C/n2ccnc2)c2ccccc2)cc1OC` (stereo not drawn), the GI50 in the assay on UACC-257, in the assay on SF-295, in the assay on SF-539, in the assay with NCI-H23, in the assay on EKVX and in the assay with SR was > 100 µM (inactive) throughout. In addition, the GI50 was > 100 µM (inactive) with MOLT-4; > 100 µM (inactive) with HOP-62; > 100 µM (inactive) with HOP-92; 49.4 µM (inactive) in the assay with SNB-75; > 100 µM (inactive) with OVCAR-5; > 100 µM (inactive) in the assay on A498. The GI50 with SK-MEL-5, with K562, in the assay on M14, in the assay with COLO 205 and with CCRF-CEM was > 100 µM (inactive) in each case.
For `O=C(O)c1ccn(-c2cccc(-n3ccc(C(=O)O)n3)n2)n1`, the GI50 in the assay with UACC-257, in the assay with DU-145, in the assay with SF-295, with SF-539, with NCI-H23 and in the assay on EKVX was > 100 µM (inactive) in each case. In addition, the GI50 with SR, with MOLT-4, in the assay on HOP-62, with SNB-75, with NCI/ADR-RES and in the assay with OVCAR-5 was > 100 µM (inactive) in each case. Also, the GI50 in the assay with SK-MEL-5, in the assay with K562, in the assay on M14, in the assay with COLO 205 and with CCRF-CEM was > 100 µM (inactive) throughout.
Consider `CCN(CC)CC(C(=O)Nc1c(C)cccc1C)/C(C)=N\NC(=O)c1ccncc1` (stereo not drawn), for which the GI50 with UACC-257, in the assay with SF-295, with SF-539, in the assay with NCI-H23, in the assay on SR and in the assay on MOLT-4 was > 100 µM (inactive) in each case. In addition, the GI50 in the assay with HOP-62, in the assay on HOP-92, with SNB-75, with OVCAR-5, with A498 and with SK-MEL-5 was > 100 µM (inactive) in each case. Further, the GI50 in the assay on M14 and in the assay with COLO 205 was > 100 µM (inactive) throughout.
On to `Cc1ccc(NC(=O)CC/C(CC(=O)C(C)(C)C)=N\NC(=O)C[n+]2ccccc2)cc1C`, for which the GI50 with UACC-257 was > 100 µM (inactive); in the assay with SF-295, > 100 µM (inactive); in the assay on SF-539 it was > 100 µM (inactive); with NCI-H23 it was > 100 µM (inactive); in the assay on EKVX, > 100 µM (inactive); in the assay with SR, 78.5 µM (inactive). For the same compound, the GI50 in the assay on MOLT-4 is 51.2 µM (inactive); in the assay with HOP-62 it was > 100 µM (inactive); in the assay on HOP-92 it was > 100 µM (inactive); in the assay on SNB-75, > 100 µM (inactive); in the assay on OVCAR-5 it was > 100 µM (inactive); in the assay with A498, > 100 µM (inactive). For the same compound, the GI50 with SK-MEL-5 is > 100 µM (inactive); in the assay with K562, 46.9 µM (inactive); in the assay on M14, > 100 µM (inactive); in the assay with COLO 205, > 100 µM (inactive); in the assay on CCRF-CEM it was 45.3 µM (inactive).
With `COC(=O)N/N=C(\C(=O)Nc1cccc([N+](=O)[O-])c1)c1nc2ccc([N+](=O)[O-])cc2nc1O`, the GI50 is > 100 µM (inactive) in the assay with UACC-257; > 100 µM (inactive) in the assay with SF-295; 39.5 µM (inactive) in the assay on SF-539; > 100 µM (inactive) with NCI-H23; > 100 µM (inactive) in the assay on EKVX; > 100 µM (inactive) in the assay with SR. In addition, the GI50 in the assay on MOLT-4 was 52.7 µM (inactive); with HOP-62, 26.4 µM (inactive); with HOP-92, 61.2 µM (inactive); in the assay with SNB-75, 85.7 µM (inactive); with OVCAR-5, > 100 µM (inactive); in the assay with SK-MEL-5 it was 34 µM (inactive). Further, the GI50 with K562 is 11.4 µM (inactive); in the assay on M14 it was 45.3 µM (inactive); in the assay on COLO 205, 37.1 µM (inactive); in the assay with CCRF-CEM, > 100 µM (inactive).
With `COP(=O)(OC)C(NC(=O)C(F)(F)F)(c1ccccc1)C(F)(F)F` (stereo not drawn), the GI50 in the assay with UACC-257, in the assay on SF-295, in the assay on SF-539, in the assay on NCI-H23, in the assay with EKVX and with SR was > 100 µM (inactive) throughout. For the same compound, the GI50 with MOLT-4, with HOP-62, in the assay on HOP-92, in the assay on SNB-75, in the assay on OVCAR-5 and in the assay on A498 was > 100 µM (inactive) in each case. In addition, the GI50 in the assay with SK-MEL-5, with K562, with M14, in the assay on COLO 205 and with CCRF-CEM was > 100 µM (inactive) in each case.
As to `O=P1(c2ccccc2)c2ccccc2-c2ccccc21`, the GI50 in the assay with UACC-257 is > 100 µM (inactive); in the assay with DU-145 it was > 100 µM (inactive); with SF-295, 57.8 µM (inactive); in the assay on SF-539, > 100 µM (inactive); with NCI-H23, > 100 µM (inactive); with EKVX it was > 100 µM (inactive). For the same compound, the GI50 was 47.5 µM (inactive) in the assay on MOLT-4; > 100 µM (inactive) in the assay with HOP-62; 13.9 µM (inactive) in the assay on HOP-92; 68.9 µM (inactive) in the assay on SNB-75; 44.4 µM (inactive) in the assay on SK-MEL-5; 86.9 µM (inactive) with K562. The GI50 was > 10 µM (inactive) in the assay on M14, > 100 µM (inactive) in the assay with COLO 205 and 55.5 µM (inactive) in the assay with CCRF-CEM.
Take `CC(C)(C)CC(C)(C)NCC(O)COc1ccc(C(C)(C)c2ccc(OCC(O)CNC(C)(C)CC(C)(C)C)cc2)cc1` (stereo not drawn): the GI50 in the assay on SF-295 is 1.68 µM (inactive); in the assay with SF-539 it was 1.86 µM (inactive); in the assay on NCI-H23 it was 1.76 µM (inactive); with EKVX it was 1.72 µM (inactive); in the assay with SR, 0.366 µM (active); in the assay with MOLT-4, 0.34 µM (active). The GI50 in the assay on HOP-62 was 1.77 µM (inactive); in the assay with HOP-92 it was 1.78 µM (inactive); in the assay with SNB-75, 1.6 µM (inactive); in the assay with OVCAR-5, 1.88 µM (inactive); in the assay on A498, 1.58 µM (inactive); in the assay on SK-MEL-5, 1.32 µM (inactive). Further, the GI50 is 0.244 µM (active) in the assay with K562, 0.279 µM (active) with M14, 0.376 µM (active) in the assay with COLO 205 and 0.356 µM (active) in the assay with CCRF-CEM.
As for `N#CC(C#N)=c1ccc(=C2NCC3CCCN23)cc1` (stereo not drawn), the GI50 with UACC-257, in the assay with SF-295, in the assay on SF-539, with SR, in the assay with MOLT-4 and in the assay with HOP-62 was > 100 µM (inactive) throughout. The GI50 with HOP-92, in the assay with SNB-75, with OVCAR-5, in the assay on A498, with SK-MEL-5 and in the assay with K562 was > 100 µM (inactive) throughout. Further, the GI50 with M14, in the assay with COLO 205 and in the assay on CCRF-CEM was > 100 µM (inactive) each time.
`CC1(C)OCC(C2OC(OC(=O)c3ccc([N+](=O)[O-])cc3)C3OC(C)(C)OC23)O1` (stereo not drawn): the GI50 in the assay on UACC-257 is > 100 µM (inactive); in the assay on DU-145, > 100 µM (inactive); in the assay with SF-295, 53.2 µM (inactive); with SF-539, > 100 µM (inactive); in the assay on NCI-H23, > 100 µM (inactive); with EKVX it was 61.8 µM (inactive). Moreover, the GI50 with SR is > 100 µM (inactive); in the assay with MOLT-4, > 100 µM (inactive); in the assay on HOP-62, 27.3 µM (inactive); in the assay on SNB-75, 16.6 µM (inactive); in the assay on NCI/ADR-RES, 69.5 µM (inactive); in the assay with OVCAR-5, > 100 µM (inactive). Moreover, the GI50 in the assay with A498, in the assay on SK-MEL-5, with K562, in the assay on M14, in the assay with COLO 205 and in the assay on CCRF-CEM was > 100 µM (inactive) each time.
Regarding `O=C1CCCC2=C1CC1=C(CCCC1=O)N2c1ccccc1C(=O)O`, the GI50 in the assay on SF-539, in the assay on NCI-H23, with EKVX, in the assay on SR, with MOLT-4 and in the assay on HOP-92 was > 100 µM (inactive) throughout. Besides, the GI50 in the assay with SNB-75, in the assay on NCI/ADR-RES, in the assay with OVCAR-5, in the assay with A498, with SK-MEL-5 and in the assay on K562 was > 100 µM (inactive) in each case. Besides, the GI50 with M14 and in the assay on CCRF-CEM was > 100 µM (inactive) in each case.
Consider `CC(C)(O)C(O)COc1c2c(cc3oc(=O)ccc13)OCO2` (stereo not drawn), for which the GI50 with UACC-257, in the assay with SF-295, with SF-539, in the assay on NCI-H23, in the assay with EKVX and in the assay on SR was > 100 µM (inactive) in each case. In addition, the GI50 in the assay with MOLT-4 was > 100 µM (inactive); in the assay with HOP-62 it was > 100 µM (inactive); in the assay with HOP-92, > 100 µM (inactive); in the assay on SNB-75, 71.9 µM (inactive); in the assay with OVCAR-5, > 100 µM (inactive); in the assay on A498, > 100 µM (inactive). Also, the GI50 in the assay on SK-MEL-5, in the assay on K562, in the assay on M14, in the assay with COLO 205 and in the assay on CCRF-CEM was > 100 µM (inactive) each time.
